Assays:
Test in all cases: KINOMEscan competition binding
AXL = target: T1, AXL (Homo sapiens, UniProt P30530); settings: read-out: %Inh AXL
T1 sequence (P30530 26-894): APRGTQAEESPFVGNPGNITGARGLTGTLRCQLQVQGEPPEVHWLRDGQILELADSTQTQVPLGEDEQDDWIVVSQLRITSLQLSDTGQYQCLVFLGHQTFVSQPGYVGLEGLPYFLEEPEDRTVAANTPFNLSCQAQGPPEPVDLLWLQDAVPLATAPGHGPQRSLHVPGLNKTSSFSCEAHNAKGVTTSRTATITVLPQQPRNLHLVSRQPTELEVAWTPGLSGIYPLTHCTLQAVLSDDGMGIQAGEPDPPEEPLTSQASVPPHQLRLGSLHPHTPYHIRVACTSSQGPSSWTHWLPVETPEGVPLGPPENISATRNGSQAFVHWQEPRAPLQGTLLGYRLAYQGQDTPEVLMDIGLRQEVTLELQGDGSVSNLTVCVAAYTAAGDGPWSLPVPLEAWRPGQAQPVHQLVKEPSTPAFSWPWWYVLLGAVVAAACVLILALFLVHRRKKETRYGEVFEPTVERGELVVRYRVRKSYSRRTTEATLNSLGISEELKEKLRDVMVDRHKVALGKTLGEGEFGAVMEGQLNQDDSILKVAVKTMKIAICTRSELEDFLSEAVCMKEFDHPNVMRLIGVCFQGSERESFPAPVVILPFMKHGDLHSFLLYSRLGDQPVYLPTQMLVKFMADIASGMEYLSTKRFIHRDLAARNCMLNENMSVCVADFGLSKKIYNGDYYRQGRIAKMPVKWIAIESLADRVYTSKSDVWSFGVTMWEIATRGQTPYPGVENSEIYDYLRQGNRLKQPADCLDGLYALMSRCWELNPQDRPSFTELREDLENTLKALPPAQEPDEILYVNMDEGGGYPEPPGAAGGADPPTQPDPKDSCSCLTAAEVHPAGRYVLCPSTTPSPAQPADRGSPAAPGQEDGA

ACVR2B = ACVR2B (Homo sapiens, UniProt Q13705); settings: read-out: %Inh ACVR2B
Sequence of ACVR2B (Q13705 19-512): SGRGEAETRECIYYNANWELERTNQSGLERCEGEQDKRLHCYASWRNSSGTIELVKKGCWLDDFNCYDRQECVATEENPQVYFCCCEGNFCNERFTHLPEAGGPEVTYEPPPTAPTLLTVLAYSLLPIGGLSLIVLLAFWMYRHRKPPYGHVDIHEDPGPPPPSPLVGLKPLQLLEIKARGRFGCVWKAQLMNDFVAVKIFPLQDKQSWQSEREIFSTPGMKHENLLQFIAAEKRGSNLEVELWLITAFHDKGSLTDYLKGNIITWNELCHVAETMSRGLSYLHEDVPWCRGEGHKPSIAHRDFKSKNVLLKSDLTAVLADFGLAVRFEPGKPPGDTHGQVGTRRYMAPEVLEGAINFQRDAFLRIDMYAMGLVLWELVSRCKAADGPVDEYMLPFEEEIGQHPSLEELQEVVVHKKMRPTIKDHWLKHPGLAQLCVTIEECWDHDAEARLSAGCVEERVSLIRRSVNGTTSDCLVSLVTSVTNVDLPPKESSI

CAMK2B = CAMK2B (Homo sapiens, UniProt Q13554); settings: read-out: %Inh CAMK2B
Sequence of CAMK2B (Q13554 whole entry): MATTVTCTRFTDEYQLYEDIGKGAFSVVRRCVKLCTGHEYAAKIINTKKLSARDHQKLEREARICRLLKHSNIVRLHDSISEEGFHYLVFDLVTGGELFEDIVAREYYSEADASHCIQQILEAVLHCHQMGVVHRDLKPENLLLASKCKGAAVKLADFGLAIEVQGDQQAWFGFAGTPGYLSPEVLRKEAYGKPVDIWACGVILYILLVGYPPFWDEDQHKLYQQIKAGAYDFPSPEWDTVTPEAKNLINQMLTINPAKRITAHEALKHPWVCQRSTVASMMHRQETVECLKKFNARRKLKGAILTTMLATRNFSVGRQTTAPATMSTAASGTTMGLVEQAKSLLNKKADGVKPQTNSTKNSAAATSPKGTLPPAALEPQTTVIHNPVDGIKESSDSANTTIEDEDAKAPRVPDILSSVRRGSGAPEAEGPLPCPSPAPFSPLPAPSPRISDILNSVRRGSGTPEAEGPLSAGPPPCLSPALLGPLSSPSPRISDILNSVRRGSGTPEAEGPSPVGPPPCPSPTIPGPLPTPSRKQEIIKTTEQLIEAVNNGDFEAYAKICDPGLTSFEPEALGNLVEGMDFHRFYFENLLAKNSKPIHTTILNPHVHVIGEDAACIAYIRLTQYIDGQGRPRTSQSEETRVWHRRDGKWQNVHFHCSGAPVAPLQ

EPHA1 = target: T2, EPHA1 (Homo sapiens, UniProt P21709); settings: read-out: %Inh EPHA1
T2 sequence (P21709 26-976): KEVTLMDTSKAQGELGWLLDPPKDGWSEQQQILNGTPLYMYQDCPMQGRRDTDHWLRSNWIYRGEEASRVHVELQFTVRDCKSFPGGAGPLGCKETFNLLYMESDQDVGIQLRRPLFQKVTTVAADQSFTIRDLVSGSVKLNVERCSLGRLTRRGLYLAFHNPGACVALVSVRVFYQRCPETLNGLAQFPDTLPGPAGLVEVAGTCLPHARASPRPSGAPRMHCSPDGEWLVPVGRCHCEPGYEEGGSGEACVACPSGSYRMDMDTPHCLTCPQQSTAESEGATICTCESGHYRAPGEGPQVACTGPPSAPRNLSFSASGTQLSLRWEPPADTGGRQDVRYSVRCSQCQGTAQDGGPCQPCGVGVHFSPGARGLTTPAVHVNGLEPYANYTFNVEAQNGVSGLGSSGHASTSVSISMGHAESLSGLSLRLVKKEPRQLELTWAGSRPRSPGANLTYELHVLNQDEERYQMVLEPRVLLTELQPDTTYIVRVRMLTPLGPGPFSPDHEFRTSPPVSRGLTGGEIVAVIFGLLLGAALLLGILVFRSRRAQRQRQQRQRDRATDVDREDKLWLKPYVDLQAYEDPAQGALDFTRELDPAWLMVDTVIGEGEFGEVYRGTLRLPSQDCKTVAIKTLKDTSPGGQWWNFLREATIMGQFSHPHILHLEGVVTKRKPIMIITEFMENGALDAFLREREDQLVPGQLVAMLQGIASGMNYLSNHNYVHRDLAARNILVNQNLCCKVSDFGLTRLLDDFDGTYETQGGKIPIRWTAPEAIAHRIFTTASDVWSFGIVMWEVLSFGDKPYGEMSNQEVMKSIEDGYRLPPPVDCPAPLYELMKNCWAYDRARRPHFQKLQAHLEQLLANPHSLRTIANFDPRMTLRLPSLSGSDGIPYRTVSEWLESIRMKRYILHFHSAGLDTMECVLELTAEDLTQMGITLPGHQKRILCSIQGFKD

BUB1 = BUB1 (Homo sapiens, UniProt O43683); settings: read-out: %Inh BUB1
CSNK2A1 = CSNK2A1 (Homo sapiens, UniProt P68400); settings: read-out: %Inh CSNK2A1
Sequence of CSNK2A1 (P68400 whole entry): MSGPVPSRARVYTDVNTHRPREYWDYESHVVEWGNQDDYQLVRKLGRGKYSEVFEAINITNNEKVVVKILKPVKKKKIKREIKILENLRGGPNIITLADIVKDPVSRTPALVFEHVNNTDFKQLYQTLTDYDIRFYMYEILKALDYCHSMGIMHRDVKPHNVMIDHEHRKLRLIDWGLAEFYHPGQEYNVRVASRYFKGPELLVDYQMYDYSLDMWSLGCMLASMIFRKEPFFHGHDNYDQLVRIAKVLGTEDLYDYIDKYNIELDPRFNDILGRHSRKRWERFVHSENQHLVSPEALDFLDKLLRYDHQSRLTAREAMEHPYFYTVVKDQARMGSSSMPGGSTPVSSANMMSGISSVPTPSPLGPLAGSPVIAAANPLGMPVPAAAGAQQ

CIT = CIT (Homo sapiens, UniProt O14578); settings: read-out: %Inh CIT
Sequence of CIT (O14578 whole entry): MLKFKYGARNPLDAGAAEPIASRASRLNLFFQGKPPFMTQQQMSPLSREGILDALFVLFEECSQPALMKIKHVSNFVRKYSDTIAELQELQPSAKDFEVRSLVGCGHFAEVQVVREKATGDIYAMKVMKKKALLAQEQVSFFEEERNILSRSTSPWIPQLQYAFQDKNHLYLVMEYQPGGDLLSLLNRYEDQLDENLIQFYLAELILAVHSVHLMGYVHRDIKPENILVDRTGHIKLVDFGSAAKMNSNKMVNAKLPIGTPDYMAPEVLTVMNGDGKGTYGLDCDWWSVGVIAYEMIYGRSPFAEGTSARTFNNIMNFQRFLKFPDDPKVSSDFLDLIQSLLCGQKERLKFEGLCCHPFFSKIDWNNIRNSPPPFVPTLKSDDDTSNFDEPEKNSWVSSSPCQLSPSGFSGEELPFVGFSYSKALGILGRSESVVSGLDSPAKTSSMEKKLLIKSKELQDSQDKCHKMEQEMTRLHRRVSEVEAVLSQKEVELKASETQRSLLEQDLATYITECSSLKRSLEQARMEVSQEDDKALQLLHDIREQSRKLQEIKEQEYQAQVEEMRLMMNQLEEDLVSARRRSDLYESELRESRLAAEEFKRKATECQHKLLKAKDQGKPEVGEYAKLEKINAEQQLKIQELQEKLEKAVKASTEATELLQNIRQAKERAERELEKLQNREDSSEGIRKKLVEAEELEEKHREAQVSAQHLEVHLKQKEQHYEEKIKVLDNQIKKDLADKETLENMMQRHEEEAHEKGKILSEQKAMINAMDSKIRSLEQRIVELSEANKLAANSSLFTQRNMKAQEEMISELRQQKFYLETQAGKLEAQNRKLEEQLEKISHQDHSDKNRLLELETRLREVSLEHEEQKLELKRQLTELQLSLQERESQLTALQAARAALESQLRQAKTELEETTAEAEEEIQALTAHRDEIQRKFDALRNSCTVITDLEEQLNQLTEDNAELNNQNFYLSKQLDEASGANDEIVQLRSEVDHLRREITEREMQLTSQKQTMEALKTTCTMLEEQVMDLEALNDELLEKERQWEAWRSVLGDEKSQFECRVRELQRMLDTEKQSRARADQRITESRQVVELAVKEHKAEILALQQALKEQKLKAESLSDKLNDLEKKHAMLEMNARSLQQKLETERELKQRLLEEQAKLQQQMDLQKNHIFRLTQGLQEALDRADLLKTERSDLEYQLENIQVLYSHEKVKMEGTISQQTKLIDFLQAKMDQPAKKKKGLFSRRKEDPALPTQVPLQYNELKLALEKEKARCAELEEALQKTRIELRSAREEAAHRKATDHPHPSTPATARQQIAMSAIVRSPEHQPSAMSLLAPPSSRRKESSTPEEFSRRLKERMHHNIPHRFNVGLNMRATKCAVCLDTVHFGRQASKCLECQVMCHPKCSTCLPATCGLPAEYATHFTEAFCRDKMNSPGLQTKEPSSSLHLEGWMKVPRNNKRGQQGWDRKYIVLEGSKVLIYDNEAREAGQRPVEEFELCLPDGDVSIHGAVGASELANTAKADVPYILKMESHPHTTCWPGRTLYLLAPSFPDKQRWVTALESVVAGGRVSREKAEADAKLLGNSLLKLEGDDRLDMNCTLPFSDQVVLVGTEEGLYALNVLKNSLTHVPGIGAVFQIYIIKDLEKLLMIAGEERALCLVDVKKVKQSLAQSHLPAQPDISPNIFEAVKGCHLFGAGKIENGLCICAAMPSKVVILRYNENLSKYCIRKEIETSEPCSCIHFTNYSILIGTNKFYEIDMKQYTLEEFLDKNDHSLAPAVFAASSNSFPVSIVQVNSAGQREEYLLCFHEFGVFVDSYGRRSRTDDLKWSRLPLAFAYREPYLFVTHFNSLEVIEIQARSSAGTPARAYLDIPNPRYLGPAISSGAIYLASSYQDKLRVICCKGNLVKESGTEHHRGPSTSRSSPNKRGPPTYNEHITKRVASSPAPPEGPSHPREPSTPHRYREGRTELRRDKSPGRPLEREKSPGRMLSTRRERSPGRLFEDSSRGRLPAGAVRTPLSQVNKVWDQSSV

CSNK1E = CSNK1E (Homo sapiens, UniProt P49674); settings: read-out: %Inh CSNK1E
Sequence of CSNK1E (P49674 whole entry): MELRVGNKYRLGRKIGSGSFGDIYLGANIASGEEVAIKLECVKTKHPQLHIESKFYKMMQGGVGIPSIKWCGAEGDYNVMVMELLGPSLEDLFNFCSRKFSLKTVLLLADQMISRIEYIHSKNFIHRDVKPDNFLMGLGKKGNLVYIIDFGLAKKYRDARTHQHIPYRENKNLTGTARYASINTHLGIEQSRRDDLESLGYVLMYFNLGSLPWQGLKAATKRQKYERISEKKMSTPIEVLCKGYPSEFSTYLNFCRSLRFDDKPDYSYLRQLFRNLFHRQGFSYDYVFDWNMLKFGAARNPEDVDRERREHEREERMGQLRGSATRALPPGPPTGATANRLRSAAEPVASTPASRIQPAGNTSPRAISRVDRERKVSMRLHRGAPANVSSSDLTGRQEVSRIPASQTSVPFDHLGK

BLK = BLK (Homo sapiens, UniProt P51451); settings: read-out: %Inh BLK
Sequence of BLK (P51451 whole entry): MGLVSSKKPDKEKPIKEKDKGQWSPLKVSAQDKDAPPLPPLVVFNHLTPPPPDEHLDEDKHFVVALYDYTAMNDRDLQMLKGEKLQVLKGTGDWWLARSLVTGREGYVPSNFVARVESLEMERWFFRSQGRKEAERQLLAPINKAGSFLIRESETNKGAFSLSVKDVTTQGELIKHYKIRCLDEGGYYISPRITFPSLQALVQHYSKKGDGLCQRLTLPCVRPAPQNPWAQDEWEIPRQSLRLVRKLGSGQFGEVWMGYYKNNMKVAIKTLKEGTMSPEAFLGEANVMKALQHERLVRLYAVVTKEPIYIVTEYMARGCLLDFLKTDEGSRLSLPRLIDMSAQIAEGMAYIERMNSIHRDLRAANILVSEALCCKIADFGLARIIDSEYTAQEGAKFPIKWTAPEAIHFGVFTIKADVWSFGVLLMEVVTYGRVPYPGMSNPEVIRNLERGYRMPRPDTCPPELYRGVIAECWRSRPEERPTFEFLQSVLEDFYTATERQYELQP

Compound | inhibition at 1 µM (AXL) [%] | inhibition at 1 µM (ACVR2B) [%] | inhibition at 1 µM (CAMK2B) [%] | inhibition at 1 µM (EPHA1) [%] | inhibition at 1 µM (BUB1) [%] | inhibition at 1 µM (CSNK2A1) [%] | inhibition at 1 µM (CIT) [%] | inhibition at 1 µM (CSNK1E) [%] | inhibition at 1 µM (BLK) [%]
CS(=O)(=O)Cc1ccc(Nc2nccc(-c3c(-c4cccc(NC(=O)C5CCCCC5)c4)nn4ncccc34)n2)cc1 [UNC10225159A] | 18 | 0 | 8 | 6 | 98.7 | 17 | 10 | 20 | 0
Cn1cc(-c2cnc(N)c3c(-c4ccc5c(c4)CCN5C(=O)Cc4ccccc4)csc23)cn1 [UNC10225012A] | 95.9 | 0 | 12 | 11 | 0 | 0 | 0 | 1 | 93
O=c1cc(N2CCOCC2)nc2n(Cc3cccc(Cl)c3Cl)c(C3CC3)nn12 [UNC10225469A] | 3 | 0 | 10 | 7 | 0 | 16 | 0 | 11 | 0
COc1cccc(OC)c1C(=O)Nc1cccc(-c2nn3ccccc3c2-c2ccnc(Nc3cccc(F)c3)n2)c1 [UNC10225310A] | 30 | 27 | 6 | 4 | 11 | 0 | 36 | 64 | 41
Cc1ccc(NC(=O)Nc2cccc(C(F)(F)F)c2)cc1 [UNC10225187A] | 0 | 0 | 25 | 17 | 0 | 1 | 29 | 0 | 0

Reference: article PMC5540273, “Progress towards a public chemogenomic set for protein kinases and a call for contributions” (PLoS ONE, 2017)
